This is an account of results in patent US5008247A, “Polysulfuric acid esters of bis-aldonamides and their derivatives, process for their preparation and medicaments” (Luitpold-Werk Chemisch-pharmazeutische Fabrik GmbH & Co., priority 1987, dated 1991).

Read-outs that look alike come from different tables or passages of the source.

Series [1] relates to fibrinolysis (plasminogen-containing fibrin plates, human standard plasma). The experiment in a line: Fibrinolysis test (lysis haloes on plasminogen-containing fibrin plates). Type of series: biochemical. The following applies: area of lysis haloes less lysis area without substance, 24 hours at 37° C. An excerpt:
The formation of a clinically manifest (relatively large) thrombus can be prevented in various ways. For one, the factors which are involved in the formation of the primary thrombus, such as blood platelet aggregation or the blood clotting system, can be eliminated. On the other hand, the dissolution of the primary thrombus can be accelerated by potentiating endogeneous fibrinolysis. A potentiation of endogeneous fibrinolysis can also serve to dissolve already clinically manifest thrombi again. The fibrinolytic action of a substance is thus of great significance in the prophylaxis and therapy of thrombosis. The fibrinolytic action of the substances according to the invention was determined in the test below.
Fibrinolysis was determined by means of plasminogen-containing fibrin plates.
Petri dishes, dia. 9 cm, were prewarmed to 40° C. 3 ml of a 2% solution of fibrinogen (Behringwerke, Marburg) in water, 1 ml of a plasminogen solution, 2 CTA/ ml (Behringwerke, Marburg), 3 ml of a 1% agarose solution (Serva, Heidelberg) in 50 mM TRIS/HCl, pH 7.8 and 1 ml of a solution of 15 U/ml of thrombin (Behringwerke, Marburg) in water were pipetted into the dishes with swirling. After cooling the plates, wells of 5 mm diameter were punched out.
0.1 ml of plasma (human standard plasma, Behringwerke, Marburg), 0.8 ml of water and 0.1 ml of solution of the test substance in various concentrations were incubated for 10 minutes at 37° C. […] The precipitate was taken up in 0.1 ml of buffer (20 mM TRIS/HCl, 100 mM NaCl, 2.7 mM EDTA, pH 7.8).
After 24 hours at 37° C., the lysis haloes were planimetered. The areas of the lysis haloes less the lysis areas without addition of substance serve as a measure for the fibrinolysis-increasing activity.

In series [2] the test system is blood clotting (activated clotting system). Kind of series: Clotting test, activated partial thromboplastin time (aPTT). Type of series: biochemical. The following applies: prolongation of 150% of the blank value as reference point; converted by heparin calibration curve. How it is done:
The inhibition of blood clotting can be measured in a simple manner by means of the activated partial thromboplastin time aPTT. It gives information about the general inhibition of the activated clotting system. In order to decrease the incidence of hemorrhages, as low as possible an inhibition of blood clotting is desired.
Clotting test, aPTT 0.1 ml of plasma and 0.1 ml of Pathromtin^R (Behringwerke, Marburg) are incubated at 37° C. for 2 minutes and 0.1 ml of 25 mM CaCl2 solution is added. The clotting time is measured in a Schnitger & Gross coagulometer. The agent is made up for 5 individual determinations per concentration.
The prlongation of the clotting time is converted into heparin units by means of a calibration curve.

Series [3] deals with radical formation by leucocytes. The experiment in a line: Test on anti-inflammatory action: inhibition of luminol-potentiated chemiluminescence in whole blood. Type of series: cell-based, rabbit. The following applies: Oryctolagus cuniculus, Leucocyte, 1.5 h, read-out: IC50 (50% inhibition of luminol-potentiated chemiluminescence).
Another series relates to bleeding time. Kind of series: Influence on the bleeding time (rat tail). Type of series: in vivo. The following applies: rats, 5 minutes before bleeding, compared to control. As for the experimental part: A piece of tail about 2 mm long was cut from rats. The time until bleeding had stopped was measured. The test substance in various concentrations or physiological saline solution (control) was administered to the animals 5 minutes before causing the bleeding. Groups of 20 animals were treated. The proiongalion of the bleeding time compared to the control was expressed in percent.

The subject of series [4] is blood clotting (activated clotting system). The following applies: standard heparin from the firm Pharmindustrie; cited from earlier work.

For orientation: IC50 means the concentration that inhibits the measured activity by half. For the compound `O=C(NCCCNC(=O)[C@H](OS(=O)(=O)O)[C@@H](OS(=O)(=O)O)[C@H](O[C@@H]1O[C@H](COS(=O)(=O)O)[C@H](OS(=O)(=O)O)[C@H](OS(=O)(=O)O)[C@H]1OS(=O)(=O)O)[C@@H](COS(=O)(=O)O)OS(=O)(=O)O)[C@H](OS(=O)(=O)O)[C@@H](OS(=O)(=O)O)[C@H](O[C@@H]1O[C@H](COS(=O)(=O)O)[C@H](OS(=O)(=O)O)[C@H](OS(=O)(=O)O)[C@H]1OS(=O)(=O)O)[C@@H](COS(=O)(=O)O)OS(=O)(=O)O.[Na].[Na].[Na].[Na].[Na].[Na].[Na].[Na].[Na].[Na].[Na].[Na].[Na].[Na].[Na].[Na]` [Example 20, Hexadecasodium N,N'-1,3-propanediylbis-[2,3,5,6-tetra-O-sulfo-4-O-(2,3,4,6-tetra-O-sulfo-β-D-galactopyranosyl)-D-gluconamide]], in series [1], the “Fibrinolysis at 2 μg/ml” value is 19.2 mm^2. The “heparin units (inhibition of blood clotting, aPTT)” value in series [2] is 42.1 u/mg. The IC50 in series [3] was found to be 540 mg/L. For the same compound, the “Lengthening of the bleeding time” value in the series with bleeding time (Dose 0.5 mg/kg) turned out to be 5.1%; in the series on bleeding time (Dose 2 mg/kg), 35.1%.
Consider `O=C(NCCCCCCNC(=O)[C@H](OS(=O)(=O)O)[C@@H](OS(=O)(=O)O)[C@H](O[C@@H]1O[C@H](COS(=O)(=O)O)[C@H](OS(=O)(=O)O)[C@H](OS(=O)(=O)O)[C@H]1OS(=O)(=O)O)[C@@H](COS(=O)(=O)O)OS(=O)(=O)O)[C@H](OS(=O)(=O)O)[C@@H](OS(=O)(=O)O)[C@H](O[C@@H]1O[C@H](COS(=O)(=O)O)[C@H](OS(=O)(=O)O)[C@H](OS(=O)(=O)O)[C@H]1OS(=O)(=O)O)[C@@H](COS(=O)(=O)O)OS(=O)(=O)O.[Na].[Na].[Na].[Na].[Na].[Na].[Na].[Na].[Na].[Na].[Na].[Na].[Na].[Na].[Na].[Na]` [Example 23, Hexadecasodium N,N'-1,6-hexanediylbis-[2,3,5,6-tetra-O-sulfo-4-O-(2,3,4,6-tetra-O-sulfo-β-D-galactopyranosyl)-D-gluconamide]], for which, in series [1], the “Fibrinolysis at 2 μg/ml” value worked out at 21.6 mm^2. In addition, the “heparin units (inhibition of blood clotting, aPTT)” value in series [2] is given as 30.9 u/mg. Moreover, the IC50 in series [3] turned out to be 225 mg/L.
For `O=C(NCCCCCCCCCNC(=O)[C@H](OS(=O)(=O)O)[C@@H](OS(=O)(=O)O)[C@H](O[C@@H]1O[C@H](COS(=O)(=O)O)[C@H](OS(=O)(=O)O)[C@H](OS(=O)(=O)O)[C@H]1OS(=O)(=O)O)[C@@H](COS(=O)(=O)O)OS(=O)(=O)O)[C@H](OS(=O)(=O)O)[C@@H](OS(=O)(=O)O)[C@H](O[C@@H]1O[C@H](COS(=O)(=O)O)[C@H](OS(=O)(=O)O)[C@H](OS(=O)(=O)O)[C@H]1OS(=O)(=O)O)[C@@H](COS(=O)(=O)O)OS(=O)(=O)O.[Na].[Na].[Na].[Na].[Na].[Na].[Na].[Na].[Na].[Na].[Na].[Na].[Na].[Na].[Na].[Na]` [Example 24, Hexadecasodium N,N'-1,9-nonanediylbis-[2,3,5,6-tetra-O-sulfo-4-O-(2,3,4,6-tetra-O-sulfo-β-D-galactopyranosyl)-D-gluconamide]], the “Fibrinolysis at 2 μg/ml” value in series [1] stood at 17.8 mm^2. For the same compound, the “heparin units (inhibition of blood clotting, aPTT)” value in series [2] is listed as 14.1 u/mg. Also, the IC50 in series [3] came out at 220 mg/L.
Turning to `O=C(NCCCCCCCCCCCCNC(=O)[C@H](OS(=O)(=O)O)[C@@H](OS(=O)(=O)O)[C@H](O[C@@H]1O[C@H](COS(=O)(=O)O)[C@H](OS(=O)(=O)O)[C@H](OS(=O)(=O)O)[C@H]1OS(=O)(=O)O)[C@@H](COS(=O)(=O)O)OS(=O)(=O)O)[C@H](OS(=O)(=O)O)[C@@H](OS(=O)(=O)O)[C@H](O[C@@H]1O[C@H](COS(=O)(=O)O)[C@H](OS(=O)(=O)O)[C@H](OS(=O)(=O)O)[C@H]1OS(=O)(=O)O)[C@@H](COS(=O)(=O)O)OS(=O)(=O)O.[Na].[Na].[Na].[Na].[Na].[Na].[Na].[Na].[Na].[Na].[Na].[Na].[Na].[Na].[Na].[Na]` [Example 25, Hexadecasodium N,N'-1,12-dodecanediylbis-[2,3,5,6-tetra-O-sulfo-4-O-(2,3,4,6-tetra-O-sulfo-β-D-galactopyranosyl)-D-gluconamide]], the “heparin units (inhibition of blood clotting, aPTT)” value in series [2] amounted to 5.85 u/mg. Besides, the IC50 in series [3] came to 155 mg/L.
`O=C(NC1CCC(CC2CCC(NC(=O)[C@H](OS(=O)(=O)O)[C@@H](OS(=O)(=O)O)[C@H](O[C@@H]3O[C@H](COS(=O)(=O)O)[C@H](OS(=O)(=O)O)[C@H](OS(=O)(=O)O)[C@H]3OS(=O)(=O)O)[C@@H](COS(=O)(=O)O)OS(=O)(=O)O)CC2)CC1)[C@H](OS(=O)(=O)O)[C@@H](OS(=O)(=O)O)[C@H](O[C@@H]1O[C@H](COS(=O)(=O)O)[C@H](OS(=O)(=O)O)[C@H](OS(=O)(=O)O)[C@H]1OS(=O)(=O)O)[C@@H](COS(=O)(=O)O)OS(=O)(=O)O` (stereo partly drawn) [Example 31, Hexadecasodium N,N'-4,4-dicylcohexylmethanediylbis-[2,3,5,6-tetra-O-sulfo-4-O-(2,3,4,6-tetra-O-sulfo-β-D-galactopyranosyl)-D-gluconamide]]: in series [2], the “heparin units (inhibition of blood clotting, aPTT)” value was determined as 10.2 u/mg.
Regarding `O=C(NCCCOCCCCOCCCNC(=O)[C@H](OS(=O)(=O)O)[C@@H](OS(=O)(=O)O)[C@H](O[C@@H]1O[C@H](COS(=O)(=O)O)[C@H](OS(=O)(=O)O)[C@H](OS(=O)(=O)O)[C@H]1OS(=O)(=O)O)[C@@H](COS(=O)(=O)O)OS(=O)(=O)O)[C@H](OS(=O)(=O)O)[C@@H](OS(=O)(=O)O)[C@H](O[C@@H]1O[C@H](COS(=O)(=O)O)[C@H](OS(=O)(=O)O)[C@H](OS(=O)(=O)O)[C@H]1OS(=O)(=O)O)[C@@H](COS(=O)(=O)O)OS(=O)(=O)O` [Example 34, Hexadecasodium N,N'-1,12-(4,9-dioxadodecanediylbis)[2,3,5,6-tetra-O-sulfo-4-O-(2,3,4,6-tetra-O-sulfo-β-D-galactopyranosyl)-D-gluconamide]], the “heparin units (inhibition of blood clotting, aPTT)” value in series [2] stood at 15.1 u/mg.
Regarding `COc1ccc2c(c1)c(CC(=O)O)c(C)n2C(=O)c1ccc(Cl)cc1` [Indomethacin, reference compound], the IC50 in series [3] (zymosan-stimulated citrated rabbit blood, maximum chemiluminescence over 90 minutes) amounted to 240 mg/L.
Turning to Heparin [reference compound], the “Fibrinolysis at 2 μg/ml” value in series [1] is listed as 14.8 mm^2. Besides, in series [2], the “heparin units (inhibition of blood clotting, aPTT)” value stood at 175 u/mg. Besides, the “Lengthening of the bleeding time” value with bleeding time (Dose 0.25 mg/kg) came out at 55.4%; in the series with bleeding time (Dose 0.5 mg/kg), 120%. The “heparin activity of the standard” value in series [4] is recorded as 175 U/mg.
